The record followed here is patent US20200022998A1, “MEDICAL USE OF NOTCH4 OR INHIBITORS THEREOF” (BEIJING INSTITUTE OF GENOMICS, CHINESE ACADEMY OF SCIENCES, priority 2016, published 2020).

Entries after “also recorded” stand apart in the source; their conditions may differ.

Holding throughout (assay type): cell-based, human
Assay [1] relates to umbilical cord blood-derived CD34+ cells. The assay is described as follows: in vitro megakaryocyte lineage differentiation of umbilical cord blood-derived CD34+ cells, flow cytometry. To be noted: 10 μM; for number of mature megakaryocytes (CD41+CD42+) produced, increase vs control group: FIG. 15; for proportion of mature megakaryocyte (CD61+), increase vs control group / proportion of mature megakaryocytes MK (CD41+CD42+) produced, increase vs control group: cells collected at D14, FIG. 14. Here is the method:
(1) CD34^+ cells in umbilical cord blood were obtained by Ficoll-Paque PLUS density gradient centrifugation and magnetic bead sorting using CD34 MicroBead Kit. As to the particular steps, please refer to (GE Healthcare Life Sciences, http://www.gelifesciences.com), (Miltenyi Biotec, http://www.miltenyibiotec.com.cn).
(2) Differentiation of umbilical cord blood-derived CD34^+ cells into megakaryocytes: umbilical cord blood-derived CD34^+ cells were counted, and seeded at 1*10^6 cells to 4 ml StemSpan™ SFEM 11+50 ng/ml SCF+50 ng/ml TPO+50 ng/ml IL-6+20 ng/ml IL-3 in a 12-well plate, with 1 ml medium for each well, and four wells in total, to which 10 μM R04929097, 10 μM L-685458, 10 μM DAPT, and the same volume of DMSO as control were added, respectively, and the time was recorded as Day 0. The liquid was changed every 3 days, and the culture condition was 37° C., 5% CO2. After incubation for 6 days, the cell density was high, and the cells in each well were divided into two wells of a 12-well plate, with 2 ml medium for each well. The inhibitors were added at the same concnetrations as described above. The cells were collected at D14, counted, and detected for cell surface markers (CD41, CD42, CD61) by flow cytometer.
As to the collection of umbilical cord blood-derived CD34^+ cells, in vitro megakaryocytic differentiation and detection, please refer to Example 4-1.
In general terms: A flow cytometer gives signals particle by particle.

A further assay concerns normal iPSC BC1. The assay is described as follows: in vitro megakaryocyte lineage differentiation of iPSC BC1 (spin-EB), flow cytometry at Day 14. Conditions: for decrease of proportion of HSPCs (CD34+CD45+) vs DMSO control / proportion of MKPs (CD34+CD41+) produced, increased fold vs DMSO control (set as 1) / proportion of mature megakaryocytes MKs (CD41+CD42+) produced, increased fold vs DMSO control (set as 1): FIG. 7A; for production of megakaryocyte progenitor cells and/or mature megakaryocytes in vitro: screen in the in vitro differentiation system of stem cells. The protocol: BC1 cell line was cultured in E8 medium, under the culture condition of 37° C., 5% CO2, and was passaged at (1:5)-(1:10) every 3-4 days depending on the concentration of cells. The cells were incubated in 0.5 mM EDTA, at room temperature for 2 min, and then were re-suspended and split up and down with E8 medium, and transferred to a culture dish that had been coated with Vitronectin one hour before.
During differentiation, spin-embryoid body (spin-EB) method was used (Ng E S, Davis R, Stanley E G, Elefanty A G, A protocol describing the use of a recombinant protein-based, animal product-free medium (APEL) for human embryonic stem cell differentiation as spin embryoid bodies, Nat Protoc. 2008; 3(5): 768-76.). At Day 0 (D0) after differentiation, iPSCs reached a confluence of above 85% (confluence refers to the percentage of the surface of a culture dish that is covered by adherent cells). After digestion with Accutase at 37° C. for 3 min, the cells were neutralized and split in SFM medium (50% IMDM, 50% Ham's F12, and the added reagents and factors including: human albumin, monothioglycerol, Glutamax, Chemically Defined Lipid Concentrate, L-Ascorbic acid 2-phosphate sesquimagnesium salt hydrate, ITS-X), counted, and centrifuged. After the cells were re-suspended in SFM, cytokines, i.e. 10 μM ROCK inhibitor (Rho-associated protein kinase inhibitor), 10 ng/ml bFGF, and 10 ng/ml BMP4, were added. Cells were seeded to a round-bottom 96-well plate, at 3000 or 5000 cells/50 μl for each well (3000 or 5000 cells were seeded to each well, in a volume of 50 μl for each well). At Day 2, 50 μl SFM medium+10 ng/ml bFGF+10 ng/ml BMP4+100 ng/ml SCF+20 ng/ml VEGF was added to each well. At Day 5, Day 8, and Day 11, 50 μl SFM medium+10 ng/ml bFGF+10 ng/ml BMP4+50 ng/ml SCF+10 ng/ml VEGF was added to each well, wherein 100 μl old medium was pipetted off at Day 8, and 10 ng/ml thrombopoietin (TPO) was added to each well at Day 11.
At Day 14 (D14), single cells (suspending cells) surrounding embryoid bodies (EBs) were collected. The cells were used in the following flow cytometry.
The cell surface markers (CD34, CD45, CD41, CD42) of the collected cells were detected by flow cytometer. The assay was as followed.
The detection was carried out in four tubes: the first tube was a negative tube that was not labeled with any flow antibody; the second tube was labelled with two antibodies CD34-APC and CD45-PE; the third tube was labeled with CD34-APC and CD41-PE; and the fourth tube was labeled with CD41-PE and CD42-APC, wherein CD34^+CD45^+represented the population of hematopoietic stem/progenitor cells (HSPCs), CD34^+CD41^+ represented the population of megakaryocyte progenitor cells (MKPs), and CD41^+CD42^+ represented the population of mature megakaryocytes (MKs).
(1) The BC1 cell line used was the same as the one used in Example 1, and was divided into three groups, wherein two 96-well plates were used for each group, and the cells were seeded at 5000 cells/50 μl to each well. In vitro differentiation was carried out by reference to the steps in Example 1, wherein the step of adding a drug was carried out in accordance with the following steps in I-III groups:
I. At Day 0 after differentiation, 10 μM RO4929097 was added, and DMSO was added to the control well.
III. At Day 2 after differentiation, 10 μM RO4929097, 10 μM L-685458, and 10 μM DAPT were added, respectively; in addition, at Day 5 after differentiation, 10 μM RO4929097, 10 μM L-685458, and 10 μM DAPT were added, respectively.
(2) The cells were collected for flow cytometry analysis, and as to the steps, please refer to the Example 1 above. […]
I. At Day 0 after differentiation, 10 μM RO4929097, and 10 μM DAPT were added, respectively.
II. At Day 2 after differentiation, 10 μM RO4929097, and 10 μM DAPT were added, respectively.
III. At Day 5 after differentiation, 10 μM RO4929097, and 10 μM DAPT were added, respectively.
IV. […]

For assay [2], the system named is umbilical cord blood-derived CD34+ cells. The assay is described as follows: megakaryocyte colony forming unit (MK-CFU) experiment, umbilical cord blood-derived CD34+ cells. To be noted: 10 μM; FIG. 16. The protocol: Megakaryocyte colony forming unit (MK-CFU) experiment: at Day 14, the cells resulted from induced differentiation were collected, and 7,500 single cells were seeded to collagen-based MegaCult-C Kit. After incubation for 10-12 days, the cells were stained with anti-CD41 antibody and counted. CD41^+ megakaryocyte colonies were counted.

Setting [3] is: 10 μM at Day 5 after in vitro differentiation, found by comparison.

Consider `C[C@H](NC(=O)Cc1cc(F)cc(F)c1)C(=O)N[C@H](C(=O)OC(C)(C)C)c1ccccc1` [DAPT], for which, in assay [1], the “number of mature megakaryocytes (CD41+CD42+) produced, increase vs control group” value stood at 2.9 folds; the “proportion of mature megakaryocyte (CD61+), increase vs control group” value worked out at 2.5 folds; the “proportion of mature megakaryocytes MK (CD41+CD42+) produced, increase vs control group” value worked out at 4.1 folds. Further, in the assay on normal iPSC BC1 (10 μM added at Day 2), the “decrease of proportion of HSPCs (CD34+CD45+) vs DMSO control” value is 35%; the “proportion of MKPs (CD34+CD41+) produced, increased fold vs DMSO control (set as 1)” value was “about 1.5 folds”; the “proportion of mature megakaryocytes MKs (CD41+CD42+) produced, increased fold vs DMSO control (set as 1)” value is on record as “about 2.4 folds”. In the assay on normal iPSC BC1 (10 μM added at Day 2, FIG. 9), the “number of MKPs (CD34+CD41+) produced, increase vs DMSO control” value (from here on “number of MKPs … increase vs DMSO control”) came to 2.5 folds and the “number of mature megakaryocytes MKs (CD41+CD42+) produced, increase vs DMSO control” value is given as 4.3 folds. Moreover, in the assay with normal iPSC BC1 (10 μM added at Day 5, FIG. 7B), the “proportion of HSPCs produced, increased fold vs DMSO control (set as 1)” value is given as “about 1.5 folds”; the “proportion of MKPs produced, increased fold vs DMSO control (set as 1)” value is “about 1.5 folds”; the “proportion of mature megakaryocytes MKs produced, increased fold vs DMSO control (set as 1)” value is listed as “about 4.1 folds”; the “total number of hematopoietic cells, increase vs control group” value amounted to 2.8 folds. Moreover, in the assay on normal iPSC BC1 (10 μM added at Day 5, FIG. 10), the “number of HSPCs (CD34+CD45+), increase vs DMSO control” value stood at 2.8 folds; the “number of MKPs … increase vs DMSO control” value was “about 6.5 folds”; the “number of mature megakaryocytes MKs (CD41+CD42+) produced, increase vs DMSO control” value is listed as “about 6.7 folds”. For the same compound, in the assay with normal iPSC BC1 (10 μM added at Day 8, FIG. 12), the “number of MKPs … increase vs DMSO control” value was determined as 1.5 folds and the “number of mature megakaryocytes MKs (CD41+CD42+) produced, increase vs DMSO control” value amounted to 1.5 folds. Moreover, in the assay on normal iPSC BC1 (10 μM added at Day 11, FIG. 13), the “number of mature megakaryocytes MKs (CD41+CD42+) produced, increase vs DMSO control” value is listed as 1.3 folds. Also, in the assay on normal iPSC BC1 (setting [3]), the “promotion of the production of mature megakaryocytes” value is on record as about 12 folds and the “promotion of the production of megakaryocyte progenitor cells” value stood at 4 folds. Further, the “production of megakaryocyte progenitor cells and/or mature megakaryocytes in vitro” value with normal iPSC BC1 is recorded as “significantly promote”. For the same compound, the “ability of megakaryocyte progenitor cells to form mature MK colony (CFU-MK), increase vs control group” value in assay [2] is on record as 2.8 folds.

In the case of `CC(C)(C(=O)NCC(F)(F)C(F)(F)F)C(=O)N[C@@H]1C(=O)Nc2ccccc2-c2ccccc21` [RO4929097], in assay [1], the “number of mature megakaryocytes (CD41+CD42+) produced, increase vs control group” value is listed as 2.9 folds; the “proportion of mature megakaryocyte (CD61+), increase vs control group” value is reported as 3.1 folds; the “proportion of mature megakaryocytes MK (CD41+CD42+) produced, increase vs control group” value was 4.5 folds. Further, in the assay with normal iPSC BC1 (10 μM added at Day 0, FIG. 5), the “proportion of HSPCs (CD34+CD45+)” value is about 0%, the “proportion of MKPs (CD34+CD41+)” value is given as about 0% and the “proportion of MKs (CD41+CD42+)” value was about 0%. Besides, the “formation of hematopoietic embryoid body (EB)” value in the assay with normal iPSC BC1 (10 μM added at Day 0 after differentiation) is listed as “no hematopoietic embryoid body EB was formed; also recorded: no hematopoietic embryoid body (EB) could be formed”. In the assay on normal iPSC BC1 (10 μM added at Day 2, FIG. 6), the “increase of proportion of mature megakaryocytes MKs (CD41+CD42+) produced vs DMSO control” value is given as 64% and the “increase of proportion of megakaryocyte progenitor cells MKPs (CD34+CD41+) produced vs DMSO control” value amounted to 67%. Further, in the assay with normal iPSC BC1 (10 μM added at Day 2), the “decrease of proportion of HSPCs (CD34+CD45+) vs DMSO control” value stood at 40%; the “proportion of MKPs (CD34+CD41+) produced, increased fold vs DMSO control (set as 1)” value was “about 1.4 folds”; the “proportion of mature megakaryocytes MKs (CD41+CD42+) produced, increased fold vs DMSO control (set as 1)” value is “about 2.5 folds”. In the assay with normal iPSC BC1 (10 μM added at Day 2, FIG. 9), the “number of MKPs … increase vs DMSO control” value is listed as 2.5 folds and the “number of mature megakaryocytes MKs (CD41+CD42+) produced, increase vs DMSO control” value was 4.3 folds. In the assay with normal iPSC BC1 (10 μM added at Day 5, FIG. 7B), the “decrease of proportion of HSPCs vs DMSO control” value was found to be 11%; the “proportion of mature megakaryocytes MKs produced, increased fold vs DMSO control (set as 1)” value is reported as “about 2.6 folds”; the “total number of hematopoietic cells, increase vs control group” value is “did not change”. Moreover, in the assay on normal iPSC BC1 (10 μM added at Day 5, FIG. 10), the “number of HSPCs (CD34+CD45+), increase vs DMSO control” value stood at 2.8 folds; the “number of MKPs … increase vs DMSO control” value was “about 6.5 folds”; the “number of mature megakaryocytes MKs (CD41+CD42+) produced, increase vs DMSO control” value is “about 6.7 folds”. For the same compound, in the assay with normal iPSC BC1 (10 μM added at Day 8, FIG. 12), the “number of MKPs … increase vs DMSO control” value stood at 1.5 folds and the “number of mature megakaryocytes MKs (CD41+CD42+) produced, increase vs DMSO control” value was found to be 1.5 folds. In the assay with normal iPSC BC1 (10 μM added at Day 11, FIG. 13), the “number of mature megakaryocytes MKs (CD41+CD42+) produced, increase vs DMSO control” value was determined as 1.3 folds. Besides, the “effect on promoting the production of MKPs and MKs” value in the assay on normal iPSC BC1 (15 μM added at Day 2, FIG. 6, not as significant as 10 μM) is “a certain effect on promoting the production of MKPs and MKs”. Besides, in the assay on normal iPSC BC1, the “production of megakaryocyte progenitor cells and/or mature megakaryocytes in vitro” value was “significantly promote”. For the same compound, the “ability of megakaryocyte progenitor cells to form mature MK colony (CFU-MK), increase vs control group” value in assay [2] is reported as 2.8 folds.
